# Test results from publication PMC12504763, “Antiproliferation, 3D-multicellular spheroid and VEGFR-2 inhibitory properties of spiroindolin-2-ones with phosphonate function” (Scientific Reports, 2025).
# Like-named read-outs stand apart in the source and are kept apart here.
# Columns and labels:
# [1] = test system: MCF7 (breast) cancer cell line; assay: 2D-monolayer antiproliferation (MTT) against MCF7; format: cell-based, human; settings: for IC50: Homo sapiens, MTT, 72 h incubation, MCF7 breast, read-out: IC50, μM ± SEM MCF7; for SI (selectivity index) MCF7: IC50 of RPE1 normal cell/IC50 of MCF7
# TNF-α [2] = assay: TNF-α inhibitory properties (ELISA), MCF7 cell lysate; format: cell-based, human; settings: at 10 μM; for TNF-α pg/mL (± SEM) MCF7: control 83.26 ± 1.1
# COX-2 = target: T1, COX-2 (Homo sapiens, UniProt P35354); assay: biochemical; settings: for inhibition at 10 µM: 3 replicates, read-out: % Inhibition of COX-2 ± SEM; for SI (selectivity index, COX-2/COX-1): at 10 μM
# T1 construct: purchased BioVision incorporated USA K548–100
# T1 sequence (P35354 18-604): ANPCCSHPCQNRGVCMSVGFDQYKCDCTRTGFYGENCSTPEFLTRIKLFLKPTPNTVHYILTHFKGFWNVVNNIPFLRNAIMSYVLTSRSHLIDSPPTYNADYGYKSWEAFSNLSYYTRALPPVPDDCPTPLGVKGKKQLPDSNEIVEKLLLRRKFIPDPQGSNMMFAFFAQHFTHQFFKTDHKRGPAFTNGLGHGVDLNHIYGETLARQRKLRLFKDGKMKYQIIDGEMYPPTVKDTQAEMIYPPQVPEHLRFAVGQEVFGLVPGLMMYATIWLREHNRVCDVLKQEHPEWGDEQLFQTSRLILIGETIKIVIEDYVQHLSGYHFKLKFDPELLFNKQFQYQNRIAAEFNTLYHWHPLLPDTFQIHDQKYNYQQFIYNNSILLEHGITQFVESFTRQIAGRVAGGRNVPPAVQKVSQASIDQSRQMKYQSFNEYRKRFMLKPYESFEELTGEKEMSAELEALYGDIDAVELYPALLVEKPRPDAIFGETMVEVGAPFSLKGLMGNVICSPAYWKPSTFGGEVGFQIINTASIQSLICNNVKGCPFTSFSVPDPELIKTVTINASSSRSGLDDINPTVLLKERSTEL
# TNF-α [3] = assay: TNF-α inhibitory properties (ELISA), HCT116 cell lysate; format: cell-based, human; settings: for TNF-α % inhibition HCT116 / TNF-α pg/mL (± SEM) HCT116: at 10 μM; for TNF-α pg/mL (± SEM) HCT116: control 95.74 ± 0.5
# [4] = test system: A549 (lung) cancer cell line; assay: 2D-monolayer antiproliferation (MTT) against A549; format: cell-based, human; settings: for IC50: Homo sapiens, MTT, 72 h incubation, A549 lung, read-out: IC50, μM ± SEM A549; for SI (selectivity index) A549: IC50 of RPE1 normal cell/IC50 of A549
# VEGFR-2 [5] = target: T2, VEGFR-2 (Homo sapiens, UniProt P35968); assay: cell-based; format: cell-based; settings: for inhibition at 10 µM: MCF7; for VEGFR-2 pg/mL ± SEM MCF7: at 10 μM, control 258.70 ± 2.3
# T2 construct: endogenous in cells; host or cells: HCT116, PaCa2, MCF7 (human cancer cell lines, ATCC origin)
# T2 sequence (P35968 20-1356): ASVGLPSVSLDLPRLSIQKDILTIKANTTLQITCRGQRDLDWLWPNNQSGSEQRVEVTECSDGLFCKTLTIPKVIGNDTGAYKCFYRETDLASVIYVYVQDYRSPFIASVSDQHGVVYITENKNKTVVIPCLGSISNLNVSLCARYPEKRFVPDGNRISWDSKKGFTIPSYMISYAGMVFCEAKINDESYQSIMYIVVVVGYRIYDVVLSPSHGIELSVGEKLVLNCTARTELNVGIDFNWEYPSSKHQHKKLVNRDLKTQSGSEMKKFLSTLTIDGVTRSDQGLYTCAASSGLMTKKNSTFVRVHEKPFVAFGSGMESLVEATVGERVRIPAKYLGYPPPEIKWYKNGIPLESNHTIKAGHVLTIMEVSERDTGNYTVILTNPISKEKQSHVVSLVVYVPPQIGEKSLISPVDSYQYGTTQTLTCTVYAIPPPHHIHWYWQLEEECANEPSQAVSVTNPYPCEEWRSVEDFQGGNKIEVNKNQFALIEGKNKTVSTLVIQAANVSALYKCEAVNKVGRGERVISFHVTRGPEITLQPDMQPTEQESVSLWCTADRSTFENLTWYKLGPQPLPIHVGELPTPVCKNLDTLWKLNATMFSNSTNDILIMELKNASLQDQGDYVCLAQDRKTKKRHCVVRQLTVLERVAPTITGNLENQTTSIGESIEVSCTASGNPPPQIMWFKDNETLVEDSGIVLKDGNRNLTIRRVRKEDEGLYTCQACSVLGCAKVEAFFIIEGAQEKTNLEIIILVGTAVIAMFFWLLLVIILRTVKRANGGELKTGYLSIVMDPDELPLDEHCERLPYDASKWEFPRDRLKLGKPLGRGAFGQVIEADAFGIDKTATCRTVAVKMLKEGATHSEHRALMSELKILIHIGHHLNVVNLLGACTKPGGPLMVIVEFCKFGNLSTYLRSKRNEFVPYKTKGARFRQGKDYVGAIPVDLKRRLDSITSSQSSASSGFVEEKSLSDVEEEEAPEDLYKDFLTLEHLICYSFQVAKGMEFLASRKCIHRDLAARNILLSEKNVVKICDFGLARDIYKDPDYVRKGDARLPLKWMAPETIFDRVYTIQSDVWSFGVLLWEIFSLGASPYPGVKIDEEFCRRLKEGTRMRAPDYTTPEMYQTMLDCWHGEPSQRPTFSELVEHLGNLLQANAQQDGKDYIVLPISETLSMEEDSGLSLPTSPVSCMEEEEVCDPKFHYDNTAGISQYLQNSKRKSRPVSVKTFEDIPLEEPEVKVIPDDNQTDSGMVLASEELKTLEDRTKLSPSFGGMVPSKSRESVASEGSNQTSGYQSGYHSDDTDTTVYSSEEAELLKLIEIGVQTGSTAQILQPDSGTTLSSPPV
# TNF-α [6] = assay: TNF-α inhibitory properties (ELISA), PaCa2 cell lysate; format: cell-based, human; settings: at 10 μM; for TNF-α pg/mL (± SEM) PaCa2: control 111.8 ± 2.0
# [7] = test system: PaCa2 (pancreatic) cancer cell line; assay: 2D-monolayer antiproliferation (MTT) against PaCa2; format: cell-based, human; settings: for IC50: Homo sapiens, PaCa-2, MTT, 72 h incubation, PaCa2 pancreatic, read-out: IC50, μM ± SEM PaCa2; for SI (selectivity index) PaCa2: IC50 of RPE1 normal cell/IC50 of PaCa2; for 1/(observed property): 1/observed IC50 (μM), PaCa2
# COX-1 = target: T3, COX-1 (Ovis aries, UniProt P05979); assay: biochemical; settings: 3 replicates, read-out: % Inhibition of COX-1 ± SEM
# T3 construct: purchased BioVision incorporated USA K548–100
# T3 sequence (P05979 25-600): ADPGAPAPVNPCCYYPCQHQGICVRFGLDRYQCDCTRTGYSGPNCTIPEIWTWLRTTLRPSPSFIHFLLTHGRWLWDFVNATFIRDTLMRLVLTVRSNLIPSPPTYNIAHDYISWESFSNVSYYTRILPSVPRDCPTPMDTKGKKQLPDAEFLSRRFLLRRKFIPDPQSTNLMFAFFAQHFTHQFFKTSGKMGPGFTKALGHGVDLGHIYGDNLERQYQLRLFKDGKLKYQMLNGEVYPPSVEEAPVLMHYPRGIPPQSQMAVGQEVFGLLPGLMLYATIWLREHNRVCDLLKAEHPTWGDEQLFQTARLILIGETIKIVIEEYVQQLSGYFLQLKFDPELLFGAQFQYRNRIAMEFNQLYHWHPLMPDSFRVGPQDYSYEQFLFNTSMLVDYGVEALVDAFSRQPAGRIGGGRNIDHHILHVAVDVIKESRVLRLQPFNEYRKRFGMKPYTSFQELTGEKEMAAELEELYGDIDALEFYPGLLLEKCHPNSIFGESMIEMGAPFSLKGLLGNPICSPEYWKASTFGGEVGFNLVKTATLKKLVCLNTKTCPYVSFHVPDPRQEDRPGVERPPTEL
# VEGFR-2 [8] = target: T2, VEGFR-2; assay: cell-based; format: cell-based; settings: for inhibition at 10 µM: HCT-116, HCT116; for VEGFR-2 pg/mL ± SEM HCT116: at 10 μM, control 317.80 ± 3.5
# [9] = test system: HCT116 (colon) cancer cell line; assay: 2D-monolayer antiproliferation (MTT) against HCT116; format: cell-based, human; settings: for IC50: Homo sapiens, HCT-116; for SI (selectivity index) HCT116: IC50 of RPE1 normal cell/IC50 of HCT116
# [10] = test system: RPE1 (normal human immortalized retinal pigment epithelial cell line); assay: cells; format: cell-based; settings: for IC50: Homo sapiens, RPE-1, MTT, normal RPE1 cell, read-out: IC50, μM ± SEM RPE1; for selectivity index (SI): IC50 against RPE1 compared to the tested cancer cell line(s), in words
# VEGFR-2 [11] = target: T2, VEGFR-2; assay: cell-based; format: cell-based; settings: for inhibition at 10 µM: PaCa-2, PaCa2; for VEGFR-2 pg/mL ± SEM PaCa2: at 10 μM, control 326.80 ± 1.9
# [12] = MTT, 72 h incubation, HCT116 colon, read-out: IC50, μM ± SEM HCT116
# [13] = log of observed IC50 (μM), HCT116, read-out: Log(observed property) (converted)
SMILES,IC50 [1] [µM],SI (selectivity index) MCF7 [1],TNF-α % inhibition MCF7 (TNF-α [2]) [%],TNF-α pg/mL (± SEM) MCF7 (TNF-α [2]) [pg/mL],inhibition at 10 µM (COX-2) [%],"SI (selectivity index, COX-2/COX-1) (COX-2)",TNF-α pg/mL (± SEM) HCT116 (TNF-α [3]) [pg/mL],IC50 [4] [µM],inhibition at 10 µM (VEGFR-2 [5]) [%],VEGFR-2 pg/mL ± SEM MCF7 (VEGFR-2 [5]) [pg/mL],TNF-α % inhibition PaCa2 (TNF-α [6]) [%],TNF-α pg/mL (± SEM) PaCa2 (TNF-α [6]) [pg/mL],IC50 [7] [µM],SI (selectivity index) PaCa2 [7],inhibition at 10 µM (COX-1) [%],inhibition at 10 µM (VEGFR-2 [8]) [%],VEGFR-2 pg/mL ± SEM HCT116 (VEGFR-2 [8]) [pg/mL],"IC50 [9, 12] [µM]","IC50 [9, 13] [µM]",SI (selectivity index) HCT116 [9],further results
"CCOP(=O)(OCC)N1C/C(=C\c2ccc(Cl)cc2)C(=O)C2(C1)C(c1ccc(Cl)cc1)CN(C)C21C(=O)Nc2ccccc21 (centres unmarked) [Compound 17h, Diethyl (E)-[5′′-(4-chlorobenzylidene)-4′-(4-chlorophenyl)-1′-methyl-2,4′′-dioxodispiro[indoline-3,2′-pyrrolidine-3′,3′′-piperidin]-1′′-yl]phosphonate]",4.07 ± 0.054,2.0,74.0,21.65 ± 3.1,51.5 ± 3.1,1.06,18.45 ± 1.1,4.15 ± 0.288,79.6,52.70 ± 0.7,76.3,26.5 ± 0.7,6.35 ± 0.17,1.3,53.5 ± 2.8,83.7,51.74 ± 1.5,3.08 ± 0.165,3.08,2.6,"TNF-α inhibition fold of the standard ibuprofen (TNF-α [3]; 10 μM): 3.6 fold; TNF-α inhibition fold of the standard indomethacin (TNF-α [3]; 10 μM): 1.9 fold; TNF-α % inhibition HCT116 (TNF-α [3]): 80.7%; SI (selectivity index) A549 [4]: 2.0; potency fold of the standard drug 5-fluorouracil ([9]; HCT116, ratio of IC50): 6.6 fold; potency fold of the standard drug sunitinib ([9]; HCT116, ratio of IC50): 3.1 fold; IC50 [10]: 8.15 ± 0.675 µM; inhibition at 10 µM (VEGFR-2 [11]): 94.4%; VEGFR-2 pg/mL ± SEM PaCa2 (VEGFR-2 [11]): 18.25 ± 0.6 pg/mL"
"CCOP(=O)(OCC)N1C/C(=C\c2ccc(Cl)cc2)C(=O)C2(C1)C(c1ccc(Cl)cc1)CN(C)C21C(=O)Nc2ccc(Cl)cc21 (centres unmarked) [Compound 17j, Diethyl (E)-[5-chloro-5′′-(4-chlorobenzylidene)-4′-(4-chlorophenyl)-1′-methyl-2,4′′-dioxodispiro[indoline-3,2′-pyrrolidine-3′,3′′-piperidin]-1′′-yl]phosphonate]",3.87 ± 0.102,> 12.9,0.5,82.87 ± 4.5,53.5 ± 2.3,1.05,81.78 ± 1.4,6.06 ± 0.157,82.7,44.80 ± 0.6,11.9,98.5 ± 3.1,6.93 ± 0.337,> 7.2,48.9 ± 1.5,80.3,62.50 ± 0.7,3.487 ± 0.033,3.49,> 14.3,TNF-α % inhibition HCT116 (TNF-α [3]): 14.6%; SI (selectivity index) A549 [4]: > 8.3; 1/(observed property) [7]: 0.1443; IC50 [10]: > 50 µM; selectivity index (SI) [10]: high selectivity index; inhibition at 10 µM (VEGFR-2 [11]): 92.4%; VEGFR-2 pg/mL ± SEM PaCa2 (VEGFR-2 [11]): 24.78 ± 0.3 pg/mL
"CCOP(=O)(OCC)N1C/C(=C\c2ccc(Br)cc2)C(=O)C2(C1)C(c1ccc(Br)cc1)CN(C)C21C(=O)Nc2ccccc21 (centres unmarked) [Compound 17l, Diethyl (E)-[5′′-(4-bromobenzylidene)-4′-(4-bromophenyl)-1′-methyl-2,4′′-dioxodispiro[indoline-3,2′-pyrrolidine-3′,3′′-piperidin]-1′′-yl]phosphonate]",4.85 ± 0.082,1.6,59.6,33.67 ± 1.7,50.3 ± 2.3,0.92,27.34 ± 1.1,7.28 ± 0.316,71.6,73.50 ± 0.8,66.3,37.63 ± 0.8,6.15 ± 0.413,1.3,61.6 ± 1.2,73.5,84.20 ± 1.5,4.16 ± 0.129,4.16,1.9,SI (selectivity index) A549 [4]: 1.1; 1/(observed property) [7]: 0.1626; IC50 [10]: 7.85 ± 0.284 µM; inhibition at 10 µM (VEGFR-2 [11]): 73.5%; VEGFR-2 pg/mL ± SEM PaCa2 (VEGFR-2 [11]): 86.45 ± 1.2 pg/mL
"CCOP(=O)(OCC)N1C/C(=C\c2ccc(C)cc2)C(=O)C2(C1)C(c1ccc(C)cc1)CN(C)C21C(=O)Nc2ccc(F)cc21 (centres unmarked) [Compound 17n, Diethyl (E)-(5-fluoro-1′-methyl-5′′-(4-methylbenzylidene)-2,4′′-dioxo-4′-(p-tolyl)dispiro[indoline-3,2′-pyrrolidine-3′,3′′-piperidin]-1′′-yl)phosphonate]",4.37 ± 0.156,> 11.5,0.1,83.17 ± 4.1,47.3 ± 1.4,1.08,86.47 ± 2.4,> 50,66.9,85.60 ± 0.7,13.9,96.3 ± 3.0,15.3 ± 0.911,> 3.3,50.6 ± 2.3,63.7,115.30 ± 2.2,5.09 ± 0.191,5.09,> 9.8,TNF-α % inhibition HCT116 (TNF-α [3]): 9.7%; 1/(observed property) [7]: 0.06519; IC50 [10]: > 50 µM; selectivity index (SI) [10]: high selectivity index; inhibition at 10 µM (VEGFR-2 [11]): 87.5%; VEGFR-2 pg/mL ± SEM PaCa2 (VEGFR-2 [11]): 40.70 ± 1.6 pg/mL
